{
  "source": "the OligoGym collection",
  "note": "Oligonucleotides are given in HELM: sugar(base)linkage, 5' to 3'; d 2'-deoxyribose, r ribose, m 2'-O-methylribose, p phosphate. ss, as = sense and antisense strand; note: test concentration or dose not given here",
  "data": [
    {"target": "UBE2K", "test": "reporter assay of Huesken 2005", "conditions": "siRNA", "units": {"normalised inhibition (eCFP-eYFP dual reporter)": "%"}, "values": [
      {"substance": "RNA1{r(A)p.r(U)p.r(C)p.r(A)p.r(A)p.r(U)p.r(G)p.r(G)p.r(G)p.r(C)p.r(A)p.r(G)p.r(C)p.r(U)p.r(G)p.r(C)p.r(A)p.r(A)p.r(U)p.d(T)p.d(T)}|RNA2{r(A)p.r(U)p.r(U)p.r(G)p.r(C)p.r(A)p.r(G)p.r(C)p.r(U)p.r(G)p.r(C)p.r(C)p.r(C)p.r(A)p.r(U)p.r(U)p.r(G)p.r(A)p.r(U)p.d(C)p.d(T)}$$$RNA1{StrandType:ss}|RNA2{StrandType:as}$", "normalised inhibition (eCFP-eYFP dual reporter)": 48.4},
      {"substance": "RNA1{r(U)p.r(A)p.r(C)p.r(A)p.r(A)p.r(A)p.r(C)p.r(A)p.r(A)p.r(A)p.r(A)p.r(U)p.r(C)p.r(C)p.r(C)p.r(G)p.r(A)p.r(A)p.r(A)p.d(T)p.d(T)}|RNA2{r(U)p.r(U)p.r(U)p.r(C)p.r(G)p.r(G)p.r(G)p.r(A)p.r(U)p.r(U)p.r(U)p.r(U)p.r(G)p.r(U)p.r(U)p.r(U)p.r(G)p.r(U)p.r(A)p.d(C)p.d(T)}$$$RNA1{StrandType:ss}|RNA2{StrandType:as}$", "normalised inhibition (eCFP-eYFP dual reporter)": 66.1},
      {"substance": "RNA1{r(A)p.r(U)p.r(U)p.r(G)p.r(G)p.r(C)p.r(A)p.r(G)p.r(C)p.r(U)p.r(G)p.r(C)p.r(A)p.r(G)p.r(A)p.r(G)p.r(C)p.r(C)p.r(A)p.d(T)p.d(T)}|RNA2{r(U)p.r(G)p.r(G)p.r(C)p.r(U)p.r(C)p.r(U)p.r(G)p.r(C)p.r(A)p.r(G)p.r(C)p.r(U)p.r(G)p.r(C)p.r(C)p.r(A)p.r(A)p.r(U)p.d(A)p.d(G)}$$$RNA1{StrandType:ss}|RNA2{StrandType:as}$", "normalised inhibition (eCFP-eYFP dual reporter)": 85},
      {"substance": "RNA1{r(A)p.r(G)p.r(G)p.r(A)p.r(U)p.r(G)p.r(C)p.r(U)p.r(G)p.r(U)p.r(A)p.r(G)p.r(U)p.r(A)p.r(G)p.r(C)p.r(A)p.r(A)p.r(A)p.d(T)p.d(T)}|RNA2{r(U)p.r(U)p.r(U)p.r(G)p.r(C)p.r(U)p.r(A)p.r(C)p.r(U)p.r(A)p.r(C)p.r(A)p.r(G)p.r(C)p.r(A)p.r(U)p.r(C)p.r(C)p.r(U)p.d(G)p.d(T)}$$$RNA1{StrandType:ss}|RNA2{StrandType:as}$", "normalised inhibition (eCFP-eYFP dual reporter)": 92.1},
      {"substance": "RNA1{r(G)p.r(G)p.r(C)p.r(A)p.r(G)p.r(C)p.r(U)p.r(G)p.r(C)p.r(A)p.r(G)p.r(A)p.r(G)p.r(C)p.r(C)p.r(A)p.r(G)p.r(A)p.r(U)p.d(T)p.d(T)}|RNA2{r(A)p.r(U)p.r(C)p.r(U)p.r(G)p.r(G)p.r(C)p.r(U)p.r(C)p.r(U)p.r(G)p.r(C)p.r(A)p.r(G)p.r(C)p.r(U)p.r(G)p.r(C)p.r(C)p.d(A)p.d(A)}$$$RNA1{StrandType:ss}|RNA2{StrandType:as}$", "normalised inhibition (eCFP-eYFP dual reporter)": 81.8},
      {"substance": "RNA1{r(U)p.r(C)p.r(U)p.r(U)p.r(G)p.r(U)p.r(A)p.r(G)p.r(A)p.r(U)p.r(G)p.r(A)p.r(G)p.r(A)p.r(A)p.r(U)p.r(U)p.r(U)p.r(U)p.d(T)p.d(T)}|RNA2{r(A)p.r(A)p.r(A)p.r(A)p.r(U)p.r(U)p.r(C)p.r(U)p.r(C)p.r(A)p.r(U)p.r(C)p.r(U)p.r(A)p.r(C)p.r(A)p.r(A)p.r(G)p.r(A)p.d(T)p.d(C)}$$$RNA1{StrandType:ss}|RNA2{StrandType:as}$", "normalised inhibition (eCFP-eYFP dual reporter)": 84.4},
      {"substance": "RNA1{r(C)p.r(C)p.r(U)p.r(A)p.r(A)p.r(U)p.r(A)p.r(U)p.r(U)p.r(A)p.r(G)p.r(U)p.r(U)p.r(C)p.r(C)p.r(G)p.r(U)p.r(C)p.r(A)p.d(T)p.d(T)}|RNA2{r(U)p.r(G)p.r(A)p.r(C)p.r(G)p.r(G)p.r(A)p.r(A)p.r(C)p.r(U)p.r(A)p.r(A)p.r(U)p.r(A)p.r(U)p.r(U)p.r(A)p.r(G)p.r(G)p.d(A)p.d(T)}$$$RNA1{StrandType:ss}|RNA2{StrandType:as}$", "normalised inhibition (eCFP-eYFP dual reporter)": 74.9},
      {"substance": "RNA1{r(G)p.r(A)p.r(G)p.r(G)p.r(A)p.r(A)p.r(G)p.r(A)p.r(U)p.r(A)p.r(C)p.r(C)p.r(A)p.r(A)p.r(C)p.r(U)p.r(A)p.r(G)p.r(A)p.d(T)p.d(T)}|RNA2{r(U)p.r(C)p.r(U)p.r(A)p.r(G)p.r(U)p.r(U)p.r(G)p.r(G)p.r(U)p.r(A)p.r(U)p.r(C)p.r(U)p.r(U)p.r(C)p.r(C)p.r(U)p.r(C)p.d(C)p.d(T)}$$$RNA1{StrandType:ss}|RNA2{StrandType:as}$", "normalised inhibition (eCFP-eYFP dual reporter)": 79.3},
      {"substance": "RNA1{r(C)p.r(C)p.r(G)p.r(G)p.r(U)p.r(U)p.r(U)p.r(A)p.r(U)p.r(C)p.r(A)p.r(C)p.r(U)p.r(A)p.r(A)p.r(A)p.r(A)p.r(U)p.r(A)p.d(T)p.d(T)}|RNA2{r(U)p.r(A)p.r(U)p.r(U)p.r(U)p.r(U)p.r(A)p.r(G)p.r(U)p.r(G)p.r(A)p.r(U)p.r(A)p.r(A)p.r(A)p.r(C)p.r(C)p.r(G)p.r(G)p.d(A)p.d(C)}$$$RNA1{StrandType:ss}|RNA2{StrandType:as}$", "normalised inhibition (eCFP-eYFP dual reporter)": 89.7},
      {"substance": "RNA1{r(U)p.r(U)p.r(U)p.r(G)p.r(U)p.r(U)p.r(U)p.r(G)p.r(G)p.r(A)p.r(U)p.r(A)p.r(U)p.r(C)p.r(C)p.r(U)p.r(G)p.r(A)p.r(A)p.d(T)p.d(T)}|RNA2{r(U)p.r(U)p.r(C)p.r(A)p.r(G)p.r(G)p.r(A)p.r(U)p.r(A)p.r(U)p.r(C)p.r(C)p.r(A)p.r(A)p.r(A)p.r(C)p.r(A)p.r(A)p.r(A)p.d(T)p.d(A)}$$$RNA1{StrandType:ss}|RNA2{StrandType:as}$", "normalised inhibition (eCFP-eYFP dual reporter)": 78.9},
      {"substance": "RNA1{r(U)p.r(G)p.r(U)p.r(A)p.r(G)p.r(A)p.r(U)p.r(G)p.r(A)p.r(G)p.r(A)p.r(A)p.r(U)p.r(U)p.r(U)p.r(U)p.r(A)p.r(C)p.r(A)p.d(T)p.d(T)}|RNA2{r(U)p.r(G)p.r(U)p.r(A)p.r(A)p.r(A)p.r(A)p.r(U)p.r(U)p.r(C)p.r(U)p.r(C)p.r(A)p.r(U)p.r(C)p.r(U)p.r(A)p.r(C)p.r(A)p.d(A)p.d(G)}$$$RNA1{StrandType:ss}|RNA2{StrandType:as}$", "normalised inhibition (eCFP-eYFP dual reporter)": 89.5},
      {"substance": "RNA1{r(A)p.r(A)p.r(G)p.r(U)p.r(A)p.r(G)p.r(A)p.r(U)p.r(C)p.r(U)p.r(U)p.r(G)p.r(U)p.r(A)p.r(G)p.r(A)p.r(U)p.r(G)p.r(A)p.d(T)p.d(T)}|RNA2{r(U)p.r(C)p.r(A)p.r(U)p.r(C)p.r(U)p.r(A)p.r(C)p.r(A)p.r(A)p.r(G)p.r(A)p.r(U)p.r(C)p.r(U)p.r(A)p.r(C)p.r(U)p.r(U)p.d(T)p.d(A)}$$$RNA1{StrandType:ss}|RNA2{StrandType:as}$", "normalised inhibition (eCFP-eYFP dual reporter)": 88.9},
      {"substance": "RNA1{r(G)p.r(A)p.r(G)p.r(G)p.r(A)p.r(G)p.r(A)p.r(A)p.r(A)p.r(U)p.r(A)p.r(G)p.r(C)p.r(A)p.r(G)p.r(G)p.r(A)p.r(C)p.r(C)p.d(T)p.d(T)}|RNA2{r(G)p.r(G)p.r(U)p.r(C)p.r(C)p.r(U)p.r(G)p.r(C)p.r(U)p.r(A)p.r(U)p.r(U)p.r(U)p.r(C)p.r(U)p.r(C)p.r(C)p.r(U)p.r(C)p.d(T)p.d(T)}$$$RNA1{StrandType:ss}|RNA2{StrandType:as}$", "normalised inhibition (eCFP-eYFP dual reporter)": 54.8},
      {"substance": "RNA1{r(A)p.r(G)p.r(U)p.r(A)p.r(G)p.r(A)p.r(U)p.r(C)p.r(U)p.r(U)p.r(G)p.r(U)p.r(A)p.r(G)p.r(A)p.r(U)p.r(G)p.r(A)p.r(G)p.d(T)p.d(T)}|RNA2{r(C)p.r(U)p.r(C)p.r(A)p.r(U)p.r(C)p.r(U)p.r(A)p.r(C)p.r(A)p.r(A)p.r(G)p.r(A)p.r(U)p.r(C)p.r(U)p.r(A)p.r(C)p.r(U)p.d(T)p.d(T)}$$$RNA1{StrandType:ss}|RNA2{StrandType:as}$", "normalised inhibition (eCFP-eYFP dual reporter)": 88.2},
      {"substance": "RNA1{r(A)p.r(U)p.r(A)p.r(G)p.r(C)p.r(A)p.r(G)p.r(G)p.r(A)p.r(C)p.r(C)p.r(U)p.r(C)p.r(C)p.r(A)p.r(G)p.r(A)p.r(C)p.r(A)p.d(T)p.d(T)}|RNA2{r(U)p.r(G)p.r(U)p.r(C)p.r(U)p.r(G)p.r(G)p.r(A)p.r(G)p.r(G)p.r(U)p.r(C)p.r(C)p.r(U)p.r(G)p.r(C)p.r(U)p.r(A)p.r(U)p.d(T)p.d(T)}$$$RNA1{StrandType:ss}|RNA2{StrandType:as}$", "normalised inhibition (eCFP-eYFP dual reporter)": 69.8},
      {"substance": "RNA1{r(A)p.r(U)p.r(G)p.r(U)p.r(U)p.r(C)p.r(A)p.r(A)p.r(A)p.r(C)p.r(A)p.r(G)p.r(A)p.r(C)p.r(A)p.r(G)p.r(C)p.r(U)p.r(C)p.d(T)p.d(T)}|RNA2{r(G)p.r(A)p.r(G)p.r(C)p.r(U)p.r(G)p.r(U)p.r(C)p.r(U)p.r(G)p.r(U)p.r(U)p.r(U)p.r(G)p.r(A)p.r(A)p.r(C)p.r(A)p.r(U)p.d(T)p.d(T)}$$$RNA1{StrandType:ss}|RNA2{StrandType:as}$", "normalised inhibition (eCFP-eYFP dual reporter)": 64.6},
      {"substance": "RNA1{r(C)p.r(C)p.r(G)p.r(C)p.r(A)p.r(C)p.r(G)p.r(G)p.r(U)p.r(A)p.r(U)p.r(U)p.r(A)p.r(U)p.r(U)p.r(G)p.r(U)p.r(C)p.r(A)p.d(T)p.d(T)}|RNA2{r(U)p.r(G)p.r(A)p.r(C)p.r(A)p.r(A)p.r(U)p.r(A)p.r(A)p.r(U)p.r(A)p.r(C)p.r(C)p.r(G)p.r(U)p.r(G)p.r(C)p.r(G)p.r(G)p.d(A)p.d(G)}$$$RNA1{StrandType:ss}|RNA2{StrandType:as}$", "normalised inhibition (eCFP-eYFP dual reporter)": 63.3},
      {"substance": "RNA1{r(A)p.r(U)p.r(G)p.r(A)p.r(C)p.r(U)p.r(C)p.r(U)p.r(C)p.r(C)p.r(G)p.r(C)p.r(A)p.r(C)p.r(G)p.r(G)p.r(U)p.r(A)p.r(U)p.d(T)p.d(T)}|RNA2{r(A)p.r(U)p.r(A)p.r(C)p.r(C)p.r(G)p.r(U)p.r(G)p.r(C)p.r(G)p.r(G)p.r(A)p.r(G)p.r(A)p.r(G)p.r(U)p.r(C)p.r(A)p.r(U)p.d(T)p.d(G)}$$$RNA1{StrandType:ss}|RNA2{StrandType:as}$", "normalised inhibition (eCFP-eYFP dual reporter)": 85.7},
      {"substance": "RNA1{r(A)p.r(A)p.r(U)p.r(A)p.r(G)p.r(C)p.r(A)p.r(G)p.r(G)p.r(A)p.r(C)p.r(C)p.r(U)p.r(C)p.r(C)p.r(A)p.r(G)p.r(A)p.r(C)p.d(T)p.d(T)}|RNA2{r(G)p.r(U)p.r(C)p.r(U)p.r(G)p.r(G)p.r(A)p.r(G)p.r(G)p.r(U)p.r(C)p.r(C)p.r(U)p.r(G)p.r(C)p.r(U)p.r(A)p.r(U)p.r(U)p.d(T)p.d(C)}$$$RNA1{StrandType:ss}|RNA2{StrandType:as}$", "normalised inhibition (eCFP-eYFP dual reporter)": 56.1},
      {"substance": "RNA1{r(A)p.r(U)p.r(C)p.r(C)p.r(U)p.r(A)p.r(A)p.r(U)p.r(A)p.r(U)p.r(U)p.r(A)p.r(G)p.r(U)p.r(U)p.r(C)p.r(C)p.r(G)p.r(U)p.d(T)p.d(T)}|RNA2{r(A)p.r(C)p.r(G)p.r(G)p.r(A)p.r(A)p.r(C)p.r(U)p.r(A)p.r(A)p.r(U)p.r(A)p.r(U)p.r(U)p.r(A)p.r(G)p.r(G)p.r(A)p.r(U)p.d(G)p.d(C)}$$$RNA1{StrandType:ss}|RNA2{StrandType:as}$", "normalised inhibition (eCFP-eYFP dual reporter)": 53.2}
    ]}
  ]
}
